Assay results from paper PMC3673541 (2011).

Key:
[1] = system: Oxytricha Nova quadruplex (DNA, G4) GGGGTTTTGGGG; experiment: ITC; conditions: Na+ 100 mM; 10 mM cacodylate, 0.5 mM EDTA, pH 6.8
[2] = system: human telomeric DNA (22mer) (DNA, G4) AGGGTTAGGGTTAGGGTTAGGG; experiment: ITC; conditions: Na+ 100 mM; 10 mM cacodylate, 0.5 mM EDTA, pH 6.8; one-site model

## NC[C@@H]1O[C@H](O[C@H]2[C@@H](O)[C@H](O[C@@H]3[C@@H](O)[C@H](N)C[C@H](N)[C@H]3O[C@H]3O[C@H](CN)[C@@H](O)[C@H](O)[C@H]3N)O[C@@H]2CO)[C@H](N)[C@@H](O)[C@@H]1O
[1]
  Ka: (1.8±0.3)×10^5 M^−1
[2]
  Ka: (2.5±0.2)×10^4 M^−1
